Data reported in patent US12544391B2, “CD73 inhibitors” (ORIC Pharmaceuticals, Inc., priority 2019, dated 2026).

Molecular target: T1, CD73 (Homo sapiens, UniProt P21589)
T1 sequence (P21589 27-549): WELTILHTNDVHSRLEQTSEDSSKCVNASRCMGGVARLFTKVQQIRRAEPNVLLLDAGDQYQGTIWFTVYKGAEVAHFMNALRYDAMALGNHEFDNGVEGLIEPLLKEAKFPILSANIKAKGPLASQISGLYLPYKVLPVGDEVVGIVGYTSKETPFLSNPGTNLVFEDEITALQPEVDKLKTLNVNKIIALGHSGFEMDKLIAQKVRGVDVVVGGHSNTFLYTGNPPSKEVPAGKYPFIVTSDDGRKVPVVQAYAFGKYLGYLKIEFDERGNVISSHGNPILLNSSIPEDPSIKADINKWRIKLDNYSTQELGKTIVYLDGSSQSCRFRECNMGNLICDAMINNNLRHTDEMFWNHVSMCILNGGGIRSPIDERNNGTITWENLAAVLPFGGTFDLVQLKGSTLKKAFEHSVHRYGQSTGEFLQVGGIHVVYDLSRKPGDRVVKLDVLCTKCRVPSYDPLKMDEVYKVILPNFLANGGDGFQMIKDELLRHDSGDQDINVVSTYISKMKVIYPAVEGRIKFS
Assay: CD73 biochemical assay, Malachite Green detection of AMP hydrolysis
Conditions: CD73 320 pM, AMP 15 μM, Malachite Green readout
Procedure: Assay Reaction Conditions
• Assay Volume: 70 μl • Reaction Volume: 50 μl • CD73: 0.3208 nM • AMP: 15 μM • Assay Buffer: 2 5 mM Tris-HCL, pH 7.4, 0.01% Brij-35, 0.01% BSA, 5 mM MgCl2 Assay Procedure:
A clear 384 well plate was used in this assay.
Made dose titration of testing compounds in assay buffer, 10 points ½ log titrations in duplicates starting at 100 μM. Total volume for each well was 25 μl, with CD73 then added to each well for a final concentration of 320 pM. The solution was then incubated at RT for 15 min. 25 μl of AMP was added to each well for a final concentration of 15 μM, and then incubated at rt for 10 min. 10 μl of Malachite Green Reagent A was then added and allowed to incubate at rt for 10 min. 10 μl of Malachite Green Reagent B was then added and allowed to incubate at rt for 45 min. The absorbance for each sample was read on an Envision plate reader using excitation filter: Cy5 […].
The ability of the compounds disclosed herein to inhibit CD73 activity was quantified and the respective IC50 values were determined. Table 2 provides the biochemical IC50 values of compounds disclosed herein.

Row | Structure (SMILES) | IC50 [nM]
1 | COC[C@](Cc1nn[nH]n1)(OC[C@H]1O[C@@H](c2ccc3c(NC4CCCC4)nc(Cl)nn23)[C@H](O)[C@@H]1O)P(=O)(O)O (single isomer, unassigned) [Example 3] | ≤ 0.5
2 | O=P(O)(O)[C@@](CO)(Cc1nn[nH]n1)OC[C@H]1O[C@@H](c2ccc3c(NC4CCCC4)nc(Cl)nn23)[C@H](O)[C@@H]1O [Example 1, ((R)-2-(((2R,3S,4R,5S)-5-(2-Chloro-4-(cyclopentylamino)pyrrolo[2,1-f][1,2,4]triazin-7-yl)-3,4-dihydroxytetrahydrofuran-2-yl)methoxy)-1-hydroxy-3-(2H-tetrazol-5-yl)propan-2-yl)phosphonic acid] | ≤ 0.5
3 | O=P(O)(O)[C@](CO)(Cc1nn[nH]n1)OC[C@H]1O[C@@H](c2ccc3c(NC4CCCC4)nc(Cl)nn23)[C@H](O)[C@@H]1O [Example 2, ((S)-2-(((2R,3S,4R,5S)-5-(2-Chloro-4-(cyclopentylamino)pyrrolo[2,1-f][1,2,4]triazin-7-yl)-3,4-dihydroxytetrahydrofuran-2-yl)methoxy)-1-hydroxy-3-(2H-tetrazol-5-yl)propan-2-yl)phosphonic acid] | 1 to 100
4 | COC[C@@](Cc1nn[nH]n1)(OC[C@H]1O[C@@H](c2ccc3c(NC4CCCC4)nc(Cl)nn23)[C@H](O)[C@@H]1O)P(=O)(O)O [Example 4, ((S)-2-(((2R,3S,4R,5S)-5-(2-Chloro-4-(cyclopentylamino)pyrrolo[2,1-f][1,2,4]triazin-7-yl)-3,4-dihydroxytetrahydrofuran-2-yl)methoxy)-1-methoxy-3-(2H-tetrazol-5-yl)propan-2-yl)phosphonic acid] | 1 to 100
5 | COC[C@](CO)(OC[C@H]1O[C@@H](c2ccc3c(NC4CCCC4)nc(Cl)nn23)[C@H](O)[C@@H]1O)P(=O)(O)O [Example 6, ((R)-2-(((2R,3S,4R,5S)-5-(2-Chloro-4-(cyclopentylamino)pyrrolo[2,1-f][1,2,4]triazin-7-yl)-3,4-dihydroxytetrahydrofuran-2-yl)methoxy)-1-hydroxy-3-methoxypropan-2-yl)phosphonic acid] | ≤ 0.5
6 | COC[C@@](CO)(OC[C@H]1O[C@@H](c2ccc3c(NC4CCCC4)nc(Cl)nn23)[C@H](O)[C@@H]1O)P(=O)(O)O [Example 7, ((S)-2-(((2R,3S,4R,5S)-5-(2-chloro-4-(cyclopentylamino)pyrrolo[2,1-f][1,2,4]triazin-7-yl)-3,4-dihydroxytetrahydrofuran-2-yl)methoxy)-1-hydroxy-3-methoxypropan-2-yl)phosphonic acid] | 1 to 100
7 | COCC(OC[C@H]1O[C@@H](c2ccc3c(NC4CCCC4)nc(Cl)nn23)[C@H](O)[C@@H]1O)(C(=O)O)P(=O)(O)O (stereo partly drawn) [Example 8, 2-(((2R,3S,4R,5S)-5-(2-Chloro-4-(cyclopentylamino)pyrrolo[2,1-f][1,2,4]triazin-7-yl)-3,4-dihydroxytetrahydrofuran-2-yl)methoxy)-3-methoxy-2-phosphonopropanoic acid] | 0.5 to 1
8 | COC[C@@](COCc1nn[nH]n1)(OC[C@H]1O[C@@H](c2ccc3c(NC4CCCC4)nc(Cl)nn23)[C@H](O)[C@@H]1O)P(=O)(O)O [Example 10, ((R)-1-((2H-tetrazol-5-yl)methoxy)-2-(((2R,3S,4R,5S)-5-(2-chloro-4-(cyclopentylamino)pyrrolo[2,1-f][1,2,4]triazin-7-yl)-3,4-dihydroxytetrahydrofuran-2-yl)methoxy)-3-methoxypropan-2-yl)phosphonic acid] | 1 to 100
9 | O=P(O)(O)C(CO)(CO)OC[C@H]1O[C@@H](c2ccc3c(NC4CCCC4)nc(Cl)nn23)[C@H](O)[C@@H]1O [Example 11, (2-(((2R,3S,4R,5S)-5-(2-chloro-4-(cyclopentylamino)pyrrolo[2,1-f][1,2,4]triazin-7-yl)-3,4-dihydroxytetrahydrofuran-2-yl)methoxy)-1,3-dihydroxypropan-2-yl)phosphonic acid] | 0.5 to 1
10 | O=P(O)(O)C(CO)OC[C@H]1O[C@@H](c2ccc3c(NC4CCCC4)nc(Cl)nn23)[C@H](O)[C@@H]1O (stereo partly drawn) [Example 13, (1-(((2R,3S,4R,5S)-5-(2-chloro-4-(cyclopentylamino)pyrrolo[2,1-f][1,2,4]triazin-7-yl)-3,4-dihydroxytetrahydrofuran-2-yl)methoxy)-2-hydroxyethyl)phosphonic acid] | 1 to 100
11 | COCC(OC[C@H]1O[C@@H](c2ccc3c(NC4CCCC4)nc(Cl)nn23)[C@H](O)[C@@H]1O)P(=O)(O)O (stereo partly drawn) [Example 14, (1-(((2R,3S,4R,5S)-5-(2-chloro-4-(cyclopentylamino)pyrrolo[2,1-f][1,2,4]triazin-7-yl)-3,4-dihydroxytetrahydrofuran-2-yl)methoxy)-2-methoxyethyl)phosphonic acid] | 0.5 to 1
12 | O=P(O)(O)[C@](CO)(COCc1nn[nH]n1)OC[C@H]1O[C@@H](c2ccc3c(NC4CCCC4)nc(Cl)nn23)[C@H](O)[C@@H]1O [Example 16, ((R)-1-((2H-tetrazol-5-yl)methoxy)-2-(((2R,3S,4R,5S)-5-(2-chloro-4-(cyclopentylamino)pyrrolo[2,1-f][1,2,4]triazin-7-yl)-3,4-dihydroxytetrahydrofuran-2-yl)methoxy)-3-hydroxypropan-2-yl)phosphonic acid] | 0.5 to 1
13 | O=P(O)(O)C(CO)(CO)OC[C@H]1O[C@@H](c2cnn3c(NC4CCCC4)cc(Cl)nc23)[C@H](O)[C@@H]1O [Example 17, (2-(((2R,3S,4R,5S)-5-(5-Chloro-7-(cyclopentylamino)pyrazolo[1,5-a]pyrimidin-3-yl)-3,4-dihydroxytetrahydrofuran-2-yl)methoxy)-1,3-dihydroxypropan-2-yl)phosphonic acid] | 0.5 to 1
14 | O=P(O)(O)C(CO)(CO)OC[C@H]1O[C@H](c2cnn3c(NC4CCCC4)cc(Cl)nc23)[C@H](O)[C@@H]1O [Example 18, (2-(((2R,3S,4R,5R)-5-(5-Chloro-7-(cyclopentylamino)pyrazolo[1,5-a]pyrimidin-3-yl)-3,4-dihydroxytetrahydrofuran-2-yl)methoxy)-1,3-dihydroxypropan-2-yl)phosphonic acid] | 1 to 100
15 | CC(CO)(OC[C@H]1O[C@@H](c2ccc3c(NC4CCCC4)nc(Cl)nn23)[C@H](O)[C@@H]1O)P(=O)(O)O (stereo partly drawn) [Example 19, (2-(((2R,3S,4R,5S)-5-(2-chloro-4-(cyclopentylamino)pyrrolo[2,1-f][1,2,4]triazin-7-yl)-3,4-dihydroxytetrahydrofuran-2-yl)methoxy)-1-hydroxypropan-2-yl)phosphonic acid] | 1 to 100
16 | O=P(O)(O)C(CO)(COCc1nn[nH]n1)OC[C@H]1O[C@@H](c2ccc3c(NC4CCCC4)nc(Cl)nn23)[C@H](O)[C@@H]1O (stereo partly drawn) [Example 20, (1-((2H-tetrazol-5-yl)methoxy)-2-(((2R,3S,4R,5S)-5-(2-chloro-4-(cyclopentylamino)pyrrolo[2,1-f][1,2,4]triazin-7-yl)-3,4-dihydroxytetrahydrofuran-2-yl)methoxy)-3-hydroxypropan-2-yl)phosphonic acid] | ≤ 0.5
17 | O=P(O)(O)C(CO)(Cc1nn[nH]n1)OC[C@H]1O[C@@H](c2ccc3c(NC4CCCC4)nc(CO)nn23)[C@H](O)[C@@H]1O (stereo partly drawn) [Example 21] | 0.5 to 1
18 | COCC(C)(OC[C@H]1O[C@@H](c2ccc3c(NC4CCCC4)nc(Cl)nn23)[C@H](O)[C@@H]1O)P(=O)(O)O (stereo partly drawn) [Example 22, (2-(((2R,3S,4R,5S)-5-(2-chloro-4-(cyclopentylamino)pyrrolo[2,1-f][1,2,4]triazin-7-yl)-3,4-dihydroxytetrahydrofuran-2-yl)methoxy)-1-methoxypropan-2-yl)phosphonic acid] | ≤ 0.5
